This is an account of results in patent publication EP4389751A1, “HETEROCYCLIC COMPOUNDS AND USES THEREOF” (Kumquat Biosciences Inc., priority 2021, dated 2024).

Structures are written as SMILES. pIC50: −log10 of the molar value. Like-named read-outs stand apart in the source and are kept apart here.

One assay has as its system GP2D cells. The assay can be described thus: Cell proliferation assay (CellTiter-Glo), K-Ras G12D cells. The note with it: GP2D cells (K-Ras G12D); read-out: Inhibition of GP2D Cells (IC50). The assay is classed as cell-based. An outline of the steps: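 GP2D (K-Ras G12D) cells seeded in DMEM with 2 mM glutamine and 10% FBS, then dosed next day with a dilution series (e.g., 9-point 3-fold). Viability read by CellTiter-Glo luminescence after about 5 days. IC50 from four-parameter fit.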
For orientation: ATP-based viability assays read luminescence as a measure of living cells.

In another assay the test system is A549 cells. The assay can be described thus: Cell proliferation assay (CellTiter-Glo), K-Ras G12S cells. In kind it is cell-based. The note with it: for pIC50: Homo sapiens, A549, A549 cells (K-Ras G12S), read-out: Inhibition of A549 Cells (IC50); for ratio of IC50 against a G12D cell line to IC50 against a G12S cell line: K-Ras G12D cell line such as GP2D relative to K-Ras G12S cell line such as A549, greater than 1, 2, 3, 4, 5, 10, 15 or even greater, 8640 min. The protocol: A549 (ATCC CRL-185) and LS123 (ATCC CRL-255) cell lines comprise a G12S mutation and can be used to assess Ras cellular signaling in vitro, e.g., in response to the compounds herein. A549 culture medium is prepared with RPMI-1640 and 10% heat-inactivated FBS. LS123 culture medium is prepared with RPMI-1640 and 10% heat-inactivated FBS. A CellTiter-Glo (CTG) luminescent based assay (Promega) is used to assess growth of the cells, as a measurement of the ability of the compounds herein to inhibit Ras signaling in the cells. The cells (e.g., 800 per well) are seeded in their respective culture medium in standard tissue culture-treated 384-well format plates (Falcon #08-772-116) or ultra-low attachment surface 384-well format plates (S-Bio # MS-9384WZ). The day after plating, cells are treated with a dilution series (e.g., a 10 point 3-fold dilution series) of the compounds herein (e.g., approximately 40 µl final volume per well). Cell viability can be monitored (e.g., approximately 6 days later) according to the manufacturer's recommended instructions, where the CellTiter-Glo reagent is added (e.g., approximately 10 µl), vigorously mixed, covered, and placed on a plate shaker (e.g., approximately for 20 min) to ensure sufficient cell lysis prior to assessment of luminescent signal. The IC50 values are determined using the four parameter fit. The resulting IC50 value is a measurement of the ability of the compounds herein to reduce cell growth of Ras-driven cells (e.g., tumor cell lines) in vitro and/or in vivo.

The next assay deals with T1, K-Ras G12S (Homo sapiens, UniProt P01116, G12S).
T1 construct: made in house; host or cells: E. coli (e.g., BL21 (DE3))
The assay can be described thus: HTRF assay of the K-Ras / SOS1 interaction. In kind it is biochemical. The note with it: IC50 (against K-Ras G12D) to IC50 (against K-Ras G12S). The gist of the method: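 GST-K-Ras G12S with anti-GST-Eu donor and His-hSOS1 with anti-6His-XL665 acceptor in ~5 mM HEPES pH 7.4, ~150 mM NaCl, 1 mM DTT, 0.05% BSA, 0.0025% Igepal. Read after ~10 min or longer; IC50 from 665/620 nm ratio, duplicates at 10 µM down to 0.01 µM.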
In general terms: In TR-FRET formats the signal depends on donor and acceptor labels being close together.

Broadly, the pIC50 is the IC50 on a negative log10 scale, so that one unit is a factor of ten.

T1 sequence (P01116 1-188 isoform P01116-2 G12S): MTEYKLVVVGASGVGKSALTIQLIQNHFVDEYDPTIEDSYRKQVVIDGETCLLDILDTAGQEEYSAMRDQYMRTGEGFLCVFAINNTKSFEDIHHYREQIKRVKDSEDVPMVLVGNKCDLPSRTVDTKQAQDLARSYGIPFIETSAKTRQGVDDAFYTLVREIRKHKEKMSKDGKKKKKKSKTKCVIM

As for `N#Cc1c(N)sc2c(F)ccc(-c3c(Cl)cc4c(N5CC6CN(C(=O)n7cncn7)C6C5)nc(OC[C@@]56CCCN5C[C@H](F)C6)nc4c3F)c12` (stereo partly drawn) [Compound A306, 4-(4-(6-(1H-1,2,4-triazole-1-carbonyl)-3,6-diazabicyclo[3.2.0]heptan-3-yl)-6-chloro-8-fluoro-2-(((2R,7aS)-2-fluorotetrahydro-1H-pyrrolizin-7a(5H)-yl)methoxy)quinazolin-7-yl)-2-amino-7-fluorobenzo[b]thiophene-3-carbonitrile], the results for the pIC50 with GP2D cells and in the assay on A549 cells (bin 500 nM to 5 µM) were not below 6.00 and 5.30 to 6.30, respectively.
With `Cc1nc(C(C)C)nn1C(=O)N1CC2(CCCCN(c3nc(OC[C@@]45CCCN4C[C@H](F)C5)nc4c(F)c(-c5ccc(F)c6sc(N)c(C#N)c56)c(Cl)cc34)C2)C1` [Compound A305, 2-amino-4-(6-chloro-8-fluoro-2-(((2R,7aS)-2-fluorotetrahydro-1H-pyrrolizin-7 a(5H)-yl)methoxy)-4-(2-(3-isopropyl-5-methyl-1H-1,2,4-triazole-1-carbonyl)-2,6-diazaspiro[3.6]decan-6-yl)quinazolin-7-yl)-7-fluorobenzo[b]thiophene-3-carbonitrile], the results for the pIC50 in the assay with GP2D cells and in the assay with A549 cells (bin ≤ 500 nM) were 5.00 to 6.00 and not below 6.30, respectively. For the same compound, the “ratio of IC50 against a G12D cell line to IC50 against a G12S cell line” value in the assay with A549 cells was “greater than 1”.
For the compound `Nc1nc2c(-c3c(Cl)cc4c(N5CCC6(CC5)CN(C(=O)n5cncn5)C6)nc(OC[C@@]56CCCN5C[C@H](F)C6)nc4c3F)ccc(F)c2s1` [Compound A233, (7-(7-(2-amino-7-fluorobenzo[d]thiazol-4-yl)-6-chloro-8-fluoro-2-(((2R,7aS)-2-fluorotetrahydro-1H-pyrrolizin-7a(5H)-yl)methoxy)quinazolin-4-yl)-2,7-diazaspiro[3.5]nonan-2-yl)(1H-1,2,4-triazol-1-yl)methanone], the pIC50 in the assay with GP2D cells is 5.00 to 6.00; in the assay with A549 cells (bin 500 nM to 5 µM), 5.30 to 6.30. The “Ratio of IC50 KRAS G12D vs. IC50 KRAS G12S” value at K-Ras G12S is listed as “A (A: indicates that the ratio of IC50 against KrasG12D vs. IC50 against KrasG12S is 1-fold or greater)”.
On to `N#Cc1c(N)sc2c(F)ccc(-c3c(Cl)cc4c(N5CC6CCC(C5)N6C(=O)Nc5ncccn5)nc(OC[C@@]56CCCN5C[C@H](F)C6)nc4c3F)c12` [Compound A215, 3-(7-(2-amino-3-cyano-7-fluorobenzo[b]thiophen-4-yl)-6-chloro-8-fluoro-2-(((2R,7aS)-2-fluorotetrahydro-1H-pyrrolizin-7a(5H)-yl)methoxy)quinazolin-4-yl)-N-(pyrimidin-2-yl)-3,8-diazabicyclo[3.2. 1]octane-8-carboxamide], for which the results for the pIC50 in the assay on GP2D cells and in the assay with A549 cells (bin ≤ 500 nM) were not below 6.00 and not below 6.30, respectively.
For `Cc1ncn(C(=O)N2CCCC(Oc3nc(OC[C@@]45CCCN4C[C@H](F)C5)nc4c(F)c(-c5ccc(F)c6sc(N)c(C#N)c56)c(Cl)cc34)CC2)n1` (stereo partly drawn) [Compound A174, 2-amino-4-(6-chloro-8-fluoro-2-(((2R,7aS)-2-fluorotetrahydro-1H-pyrrolizin-7 a(5H)-yl)methoxy)-4-((1-(3-methyl-1H-1 ,2,4-triazole-1-carbonyl)azepan-4-yl)oxy)quinazolin-7-yl)-7-fluorobenzo[b]thiophene-3-carbonitrile], the figures for the pIC50 in the assay on GP2D cells and with A549 cells (bin 500 nM to 5 µM) were 5.00 to 6.00 and 5.30 to 6.30, respectively. In addition, at K-Ras G12S, the “Ratio of IC50 KRAS G12D vs. IC50 KRAS G12S” value was “A (A: indicates that the ratio of IC50 against KrasG12D vs. IC50 against KrasG12S is 1-fold or greater)”.
In the case of `Cc1nc(C)n(C(=O)N2CC3(CCCCN(c4nc(OC[C@@]56CCCN5C[C@H](F)C6)nc5c(F)c(-c6ccc(F)c7sc(N)c(C#N)c67)c(Cl)cc45)C3)C2)n1` [Compound A116, 2-amino-4-(6-chloro-4-(2-(3,5-dimethyl-1H-1,2,4-triazole-1-carbonyl)-2,6-diazaspiro[3.6]decan-6-yl)-8-fluoro-2-(((2R,7aS)-2-fluorotetrahydro-1H-pyrrolizin-7a(5H)-yl)methoxy)quinazolin-7-yl)-7-fluorobenzo[b]thiophene-3-carbonitrile], the pIC50 in the assay with GP2D cells was not below 6.00; in the assay on A549 cells (bin ≤ 500 nM), not below 6.30.
Regarding `N#Cc1c(N)sc2c(F)ccc(-c3c(Cl)cc4c(N5CCC6CN(C(=O)Nc7ncccn7)CCC65)nc(OC[C@@]56CCCN5C[C@H](F)C6)nc4c3F)c12` (stereo partly drawn) [Compound A251, 1-(7-(2-amino-3-cyano-7-fluorobenzo[b]thiophen-4-yl)-6-chloro-8-fluoro-2-(((2R,7aS)-2-fluorotetrahydro-1H-pyrrolizin-7a(5H)-yl)methoxy)quinazolin-4-yl)-N-(pyrimidin-2-yl)octahydro-5H-pyrrolo[3,2-c]pyridine-5-carboxamide], the pIC50 in the assay on GP2D cells is 5.00 to 6.00; in the assay with A549 cells (bin ≤ 500 nM), not below 6.30. Moreover, in the assay with A549 cells, the “ratio of IC50 against a G12D cell line to IC50 against a G12S cell line” value is on record as “greater than 1”.
Take `N#Cc1cnn(C(=O)N2C3CCC2CN(c2nc(OC[C@@]45CCCN4C[C@H](F)C5)nc4c(F)c(-c5ccc(F)c6sc(N)nc56)c(Cl)cc24)C3)c1` [Compound A253, 1-(3-(7-(2-amino-7-fluorobenzo[d]thiazol-4-yl)-6-chloro-8-fluoro-2-(((2R,7aS)-2-fluorotetrahydro-1H-pyrrolizin-7a(5H)-yl)methoxy)quinazolin-4-yl)-3,8-diazabicyclo[3.2. 1]octane-8-carbonyl)-1H-pyrazole-4-carbonitrile]: the pIC50 in the assay with GP2D cells is not below 6.00; in the assay with A549 cells (bin 500 nM to 5 µM), 5.30 to 6.30.
As for `N#Cc1c(N)sc2c(F)ccc(-c3c(Cl)cc4c(N5CCC6CN(C(=O)Nc7ncccn7)CCC65)nc(OC[C@@]56CCCN5C[C@H](F)C6)nc4c3F)c12` (single isomer, unassigned) [Compound A271], the “Ratio of IC50 KRAS G12D vs. IC50 KRAS G12S” value on K-Ras G12S was “A (A: indicates that the ratio of IC50 against KrasG12D vs. IC50 against KrasG12S is 1-fold or greater)”. Also, in the assay on A549 cells (bin 500 nM to 5 µM), the pIC50 is 5.30 to 6.30.
For the compound `Nc1nc2c(-c3c(Cl)cc4c(N5CC6CN(C(=O)n7cncn7)C6C5)nc(OC[C@@]56CCCN5C[C@H](F)C6)nc4c3F)ccc(F)c2s1` (stereo partly drawn) [Compound A177, (3-(7-(2-amino-7-fluorobenzo[d]thiazol-4-yl)-6-chloro-8-fluoro-2-(((2R,7aS)-2-fluorotetrahydro-1H-pyrrolizin-7a(5H)-yl)methoxy)quinazolin-4-yl)-3,6-diazabicyclo[3.2.0]heptan-6-yl)(1H-1,2,4-triazol-1-yl)methanone], the pIC50 with GP2D cells was not below 6.00; with A549 cells (bin 500 nM to 5 µM) it was 5.30 to 6.30.
In the case of `N#Cc1c(N)sc2c(F)ccc(-c3c(Cl)cc4c(N5CC6CCC(C5)N6C(=O)n5ccnc5)nc(OC[C@@]56CCCN5C[C@H](F)C6)nc4c3F)c12` [Compound A105, 4-(4-(8-(1H-imidazole-1-carbonyl)-3,8-diazabicyclo[3.2.1]octan-3-yl)-6-chloro-8-fluoro-2-(((2R,7aS)-2-fluorotetrahydro-1H-pyrrolizin-7a(5H)-yl)methoxy)quinazolin-7-yl)-2-amino-7-fluorobenzo[b]thiophene-3-carbonitrile], the negative-log IC50 (pIC50) is not below 6.00 in the assay with GP2D cells and not below 6.30 in the assay with A549 cells (bin ≤ 500 nM).
In the same order, the values of `C#Cc1c(F)ccc2cc(O)cc(-c3ncc4c(N5CC6CCC(C5)N6C(=O)n5cc(C#N)cn5)nc(OC[C@@]56CCCN5C[C@H](F)C6)nc4c3F)c12` [Compound A143, 1-(3-(7-(8-ethynyl-7-fluoro-3-hydroxynaphthalen-1-yl)-8-fluoro-2-(((2R,7aS)-2-fluorotetrahydro-1H-pyrrolizin-7a(5H)-yl)methoxy)pyrido[4,3-d]pyrimidin-4-yl)-3,8-diazabicyclo[3.2. 1]octane-8-carbonyl)-1H-pyrazole-4-carbonitrile] are not below 6.00 and not below 6.30.
In the same order, the values of `Cc1ncn(C(=O)N2CC3CN(c4nc(OC[C@@]56CCCN5C[C@H](F)C6)nc5c(F)c(-c6ccc(F)c7sc(N)c(C#N)c67)c(Cl)cc45)CC32)n1` (stereo partly drawn) [Compound A196, 2-amino-4-(6-chloro-8-fluoro-2-(((2R,7aS)-2-fluorotetrahydro-1H-pyrrolizin-7 a(5H)-yl)methoxy)-4-(6-(3-methyl-1H-1,2,4-triazole-1-carbonyl)-3,6-diazabicyclo[3.2.0]heptan-3-yl)quinazolin-7-yl)-7-fluorobenzo[b]thiophene-3-carbonitrile] are not below 6.00 and not below 6.30.
